In PubChem BioAssay AID2060605 (Molecular Pharmacology Branch, DTP, NCI, 2025):
Where “and” joins values, the source holds several entries; their conditions need not be identical. Equal values may be shown once.

System: 947758-054-R-J2-PDC spheroid growth, percent test/control
Assay: Anticancer human tumor 947758-054-R-J2-PDC patient-derived colon adenocarcinoma cell line growth inhibition [CLK]
Conditions: spheroids with HUVEC and MSC; for viability, T/C: stronger effect = lower value
Procedure, shortened: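 Patient-derived tumor cells grown as complex spheroids with HUVEC endothelial cells and mesenchymal stem cells, treated with drug combinations. Concentrations descend in half-log steps from near clinical Cmax, or from 10 microM if Cmax unknown.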

[1] = curve of first compound, second compound 0.0316 µM
[2] = curve of first compound, second compound 0.1 µM
[3] = curve of first compound, second compound 0.316 µM
[4] = curve of first compound, second compound 1 µM
[5] = curve of first compound, second compound 3.16 µM
[6] = curve of first compound, second compound 10 µM
[7] = second compound 0.0316 µM, first compound 0.0316 µM
[8] = second compound 0.0316 µM, first compound 0.1 µM
[9] = second compound 0.0316 µM, first compound 0.316 µM
[10] = second compound 0.0316 µM, first compound 1 µM
[11] = second compound 0.0316 µM, first compound 3.16 µM
[12] = second compound 0.0316 µM, first compound 10 µM
[13] = second compound 0.1 µM, first compound 0.0316 µM
[14] = second compound 0.1 µM, first compound 0.1 µM
[15] = second compound 0.1 µM, first compound 0.316 µM
[16] = second compound 0.1 µM, first compound 1 µM
[17] = second compound 0.1 µM, first compound 3.16 µM
[18] = second compound 0.1 µM, first compound 10 µM
[19] = second compound 0.316 µM, first compound 0.0316 µM
[20] = second compound 0.316 µM, first compound 0.1 µM
[21] = second compound 0.316 µM, first compound 0.316 µM
[22] = second compound 0.316 µM, first compound 1 µM
[23] = second compound 0.316 µM, first compound 3.16 µM
[24] = second compound 0.316 µM, first compound 10 µM
[25] = second compound 1 µM, first compound 0.0316 µM
[26] = second compound 1 µM, first compound 0.1 µM
[27] = second compound 1 µM, first compound 0.316 µM
[28] = second compound 1 µM, first compound 1 µM
[29] = second compound 1 µM, first compound 3.16 µM
[30] = second compound 1 µM, first compound 10 µM
[31] = second compound 3.16 µM, first compound 0.0316 µM
[32] = second compound 3.16 µM, first compound 0.1 µM
[33] = second compound 3.16 µM, first compound 0.316 µM
[34] = second compound 3.16 µM, first compound 1 µM
[35] = second compound 3.16 µM, first compound 3.16 µM
[36] = second compound 3.16 µM, first compound 10 µM
[37] = second compound 10 µM, first compound 0.0316 µM
[38] = second compound 10 µM, first compound 0.1 µM
[39] = second compound 10 µM, first compound 0.316 µM
[40] = second compound 10 µM, first compound 1 µM
[41] = second compound 10 µM, first compound 3.16 µM
[42] = second compound 10 µM, first compound 10 µM
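Further: spheroids exposed to compounds for one week before readout.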
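Wherever viability, T/C is given: 100% = DMSO vehicle control wells.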

`CC(CO)NC(=O)c1cc(-c2ccc(Cl)cc2)nn(-c2cnn(C)c2)c1=O` (stereo not given) + CNC(=O)c1ccc(Nc2nc(OC3CCCC3)c3c(-c4ccc5nc(C)oc5c4)c[nH]c3n2)c(OC)c1 showed an IC50 [1] of over 10000 nM, an IC50 [2] of over 10000 nM and an IC50 [3] of 9670 nM. For the same molecule, the IC50 [4] was over 10000 nM, the IC50 [5] was under 31.6 nM and the IC50 [6] was under 31.6 nM. The viability, T/C [7] was 92.2%, the viability, T/C [8] was 66.3% and the viability, T/C [9] was 72.1%. It also gave a viability, T/C [10] of 71.8%, a viability, T/C [11] of 65.8% and a viability, T/C [12] of 52.3%. It also gave a viability, T/C [13] of 84.3%, a viability, T/C [14] of 93.9% and a viability, T/C [15] of 80%. The viability, T/C [16] was 84.6%, the viability, T/C [17] was 68.6% and the viability, T/C [18] was 52.5%. It also gave a viability, T/C [19] of 76.2%, a viability, T/C [20] of 69% and a viability, T/C [21] of 69.8%. For the same molecule, the viability, T/C [22] was 87.1%, the viability, T/C [23] was 88.5% and the viability, T/C [24] was 49.1%. It also gave a viability, T/C [25] of 67.2%, a viability, T/C [26] of 51.9% and a viability, T/C [27] of 52.7%. The viability, T/C [28] was 65.3%, the viability, T/C [29] was 72.4% and the viability, T/C [30] was 35.9%. It also gave a viability, T/C [31] of 46.9%, a viability, T/C [32] of 41% and a viability, T/C [33] of 51.1%. It also gave a viability, T/C [34] of 56.6%, a viability, T/C [35] of 55.9% and a viability, T/C [36] of 37.2%. The viability, T/C [37] was 28.5%, the viability, T/C [38] was 44.2% and the viability, T/C [39] was 40.4%. It also gave a viability, T/C [40] of 41.6%, a viability, T/C [41] of 30% and a viability, T/C [42] of 25.9%.

For `CC(=O)O[C@H]1C(=O)[C@@]2(C)[C@H]([C@H](OC(=O)c3ccccc3)[C@]3(O)C[C@H](OC(=O)[C@H](O)[C@@H](NC(=O)c4ccccc4)c4ccccc4)C(C)=C1C3(C)C)[C@]1(OC(C)=O)CO[C@@H]1C[C@@H]2O`, the viability, T/C (compound 0.0316 µM) was 7.6% and 8.82%, the viability, T/C (compound 0.1 µM) was 6.29% and 6.22% and the viability, T/C (compound 0.316 µM) was 5.41% and 6.88%. The viability, T/C (compound 1 µM) was 5.07% and 6.19%, the viability, T/C (compound 3.16 µM) was 6.6% and 8.41% and the viability, T/C (compound 10 µM) was 11.7% and 13.7%. It also gave an IC50 (curve of compound) of under 31.6 nM.

Molecule `CCN1CCN(Cc2ccc(Nc3ncc(F)c(-c4cc(F)c5nc(C)n(C(C)C)c5c4)n3)nc2)CC1` + CNC(=O)c1ccc(Nc2nc(OC3CCCC3)c3c(-c4ccc5nc(C)oc5c4)c[nH]c3n2)c(OC)c1 has an IC50 [1] of 792 nM, an IC50 [2] of 263 nM and an IC50 [3] of 46 nM. The IC50 [4] was 6.65 nM, the IC50 [5] was under 3.16 nM and the IC50 [6] was under 3.16 nM. It also gave a viability, T/C (second compound 0.0316 µM, first compound 0.00316 µM) of 96.1%, a viability, T/C (second compound 0.0316 µM, first compound 0.01 µM) of 94.5% and a viability, T/C [7] of 90.7%. It also gave a viability, T/C [8] of 73%, a viability, T/C [9] of 61.5% and a viability, T/C [10] of 46.9%. The viability, T/C (second compound 0.1 µM, first compound 0.00316 µM) was 102%, the viability, T/C (second compound 0.1 µM, first compound 0.01 µM) was 73.2% and the viability, T/C [13] was 61.4%. The viability, T/C [14] was 65.8%, the viability, T/C [15] was 57.4% and the viability, T/C [16] was 32.8%. It also gave a viability, T/C (second compound 0.316 µM, first compound 0.00316 µM) of 101%, a viability, T/C (second compound 0.316 µM, first compound 0.01 µM) of 71.3% and a viability, T/C [19] of 39.5%. For the same molecule, the viability, T/C [20] was 60.1%, the viability, T/C [21] was 38.9% and the viability, T/C [22] was 22.3%. The viability, T/C (second compound 1 µM, first compound 0.00316 µM) was 59.2%, the viability, T/C (second compound 1 µM, first compound 0.01 µM) was 46.8% and the viability, T/C [25] was 31.9%. For the same molecule, the viability, T/C [26] was 31%, the viability, T/C [27] was 42.4% and the viability, T/C [28] was 19.8%. For the same molecule, the viability, T/C (second compound 3.16 µM, first compound 0.00316 µM) was 52.2%, the viability, T/C (second compound 3.16 µM, first compound 0.01 µM) was 32.5% and the viability, T/C [31] was 39.8%. For the same molecule, the viability, T/C [32] was 34%, the viability, T/C [33] was 33.7% and the viability, T/C [34] was 25.1%. It also gave a viability, T/C (second compound 10 µM, first compound 0.00316 µM) of 40%, a viability, T/C (second compound 10 µM, first compound 0.01 µM) of 41.2% and a viability, T/C [37] of 35.6%. The viability, T/C [38] was 31.6%, the viability, T/C [39] was 21.1% and the viability, T/C [40] was 21.1%.

In the case of `COc1ccc([C@@H](O)c2cc(-c3ncnc4cc(N5CCOCC5)ccc34)c(F)cc2Cl)nn1` + CNC(=O)c1ccc(Nc2nc(OC3CCCC3)c3c(-c4ccc5nc(C)oc5c4)c[nH]c3n2)c(OC)c1, the IC50 [1] is reported as 1900 nM, the IC50 [2] is reported as 899 nM and the IC50 [3] is reported as 874 nM. The IC50 [4] was 116 nM, the IC50 [5] was under 31.6 nM and the IC50 [6] was under 31.6 nM. For the same molecule, the viability, T/C [7] was 82.4%, the viability, T/C [8] was 63.7% and the viability, T/C [9] was 74.7%. For the same molecule, the viability, T/C [10] was 49.5%, the viability, T/C [11] was 48.6% and the viability, T/C [12] was 32.8%. The viability, T/C [13] was 91.8%, the viability, T/C [14] was 81.3% and the viability, T/C [15] was 62.9%. For the same molecule, the viability, T/C [16] was 50.4%, the viability, T/C [17] was 33.8% and the viability, T/C [18] was 25.9%. For the same molecule, the viability, T/C [19] was 80.1%, the viability, T/C [20] was 66.8% and the viability, T/C [21] was 58.2%. It also gave a viability, T/C [22] of 53.4%, a viability, T/C [23] of 34.6% and a viability, T/C [24] of 17.7%. It also gave a viability, T/C [25] of 59%, a viability, T/C [26] of 51.9% and a viability, T/C [27] of 40%. For the same molecule, the viability, T/C [28] was 31.6%, the viability, T/C [29] was 24.2% and the viability, T/C [30] was 6.15%. For the same molecule, the viability, T/C [31] was 38%, the viability, T/C [32] was 32.4% and the viability, T/C [33] was 37.6%. The viability, T/C [34] was 24.1%, the viability, T/C [35] was 14.1% and the viability, T/C [36] was 7.87%. The viability, T/C [37] was 30.4%, the viability, T/C [38] was 31.9% and the viability, T/C [39] was 31%. It also gave a viability, T/C [40] of 21.5%, a viability, T/C [41] of 8.56% and a viability, T/C [42] of 5.76%.

With `Nc1ccccc1NC(=O)c1ccc(CNC(=O)OCc2cccnc2)cc1` the viability, T/C (compound 0.0316 µM) was 102% and 80.7%, the viability, T/C (compound 0.1 µM) was 105% and 97.2% and the viability, T/C (compound 0.316 µM) was 115% and 90.4%. For the same molecule, the viability, T/C (compound 1 µM) was 96% and 121%, the viability, T/C (compound 3.16 µM) was 77.7% and 55.5% and the viability, T/C (compound 10 µM) was 13.9% and 11.4%. For the same molecule, the IC50 (curve of compound) was 5180 nM and 3660 nM.
